How the values were obtained:
Adenosine receptor A1 = target: T1, Adenosine receptor A1 (Homo sapiens, UniProt P30542); assay: Displacement of [3H]CCPA from human adenosine A1 receptor expressed in CHO cells; format: cell-based
T1 sequence (P30542 whole entry): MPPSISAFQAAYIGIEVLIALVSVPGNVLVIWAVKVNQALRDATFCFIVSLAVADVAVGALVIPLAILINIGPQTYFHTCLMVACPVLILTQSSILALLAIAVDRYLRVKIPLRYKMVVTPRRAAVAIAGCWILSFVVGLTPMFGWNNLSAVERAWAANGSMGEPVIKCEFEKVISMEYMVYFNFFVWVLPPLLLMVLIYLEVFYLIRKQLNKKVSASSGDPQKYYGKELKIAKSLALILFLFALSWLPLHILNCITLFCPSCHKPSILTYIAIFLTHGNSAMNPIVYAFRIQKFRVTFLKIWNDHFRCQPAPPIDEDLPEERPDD

Adenosine receptor A3 = target: T2, Adenosine receptor A3 (Homo sapiens, UniProt P0DMS8); assay: Displacement of [3H]NECA from human adenosine A3 receptor expressed in CHO cells; format: cell-based
T2 sequence (P0DMS8 whole entry): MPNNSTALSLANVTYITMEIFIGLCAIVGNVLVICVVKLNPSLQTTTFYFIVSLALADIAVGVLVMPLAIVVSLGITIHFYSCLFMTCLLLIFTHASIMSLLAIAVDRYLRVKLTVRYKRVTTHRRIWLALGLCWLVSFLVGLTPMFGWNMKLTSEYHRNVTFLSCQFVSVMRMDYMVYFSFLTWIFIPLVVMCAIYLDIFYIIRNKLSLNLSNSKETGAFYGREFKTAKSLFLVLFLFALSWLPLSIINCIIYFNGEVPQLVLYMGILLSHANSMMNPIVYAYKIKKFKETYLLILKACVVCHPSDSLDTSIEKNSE

Adenosine receptor A2a = Adenosine receptor A2a (Homo sapiens, UniProt P29274); assay: biochemical
Sequence of Adenosine receptor A2a (P29274 whole entry): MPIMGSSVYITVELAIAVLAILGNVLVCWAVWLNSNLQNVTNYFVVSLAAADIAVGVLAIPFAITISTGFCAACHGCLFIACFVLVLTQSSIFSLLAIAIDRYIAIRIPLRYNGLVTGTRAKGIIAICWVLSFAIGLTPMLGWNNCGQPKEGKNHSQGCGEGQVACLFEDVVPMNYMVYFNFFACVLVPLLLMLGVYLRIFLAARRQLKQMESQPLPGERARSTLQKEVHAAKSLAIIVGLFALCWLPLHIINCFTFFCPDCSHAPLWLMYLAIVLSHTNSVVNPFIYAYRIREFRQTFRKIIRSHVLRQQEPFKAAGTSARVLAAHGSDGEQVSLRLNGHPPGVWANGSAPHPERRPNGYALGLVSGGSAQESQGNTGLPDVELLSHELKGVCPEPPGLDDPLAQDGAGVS
Description: Displacement of [3H]NECA from human adenosine A2A receptor expressed in CHO cells

Adenosine receptor A2b = target: T3, Adenosine receptor A2b (Homo sapiens, UniProt P29275); assay: Antagonist activity at human adenosine A2B receptor expressed in CHO cells assessed as inhibition of NECA-induced adenylyl cyclase activity; format: functional, cell-based
T3 sequence (P29275 whole entry): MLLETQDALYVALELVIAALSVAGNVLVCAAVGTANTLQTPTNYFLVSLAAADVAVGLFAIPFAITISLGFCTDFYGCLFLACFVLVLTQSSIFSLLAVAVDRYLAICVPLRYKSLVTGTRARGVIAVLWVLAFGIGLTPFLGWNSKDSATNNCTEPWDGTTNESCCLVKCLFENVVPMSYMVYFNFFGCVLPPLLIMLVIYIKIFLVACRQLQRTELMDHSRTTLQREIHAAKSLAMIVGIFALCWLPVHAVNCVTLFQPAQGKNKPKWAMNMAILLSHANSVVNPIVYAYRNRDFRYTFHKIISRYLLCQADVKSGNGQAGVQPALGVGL

Row | Compound | Ki (Adenosine receptor A1) [nM] | Ki (Adenosine receptor A3) [nM] | Ki (Adenosine receptor A2a) [nM] | IC50 (Adenosine receptor A2b) [nM]
1 | O=C(Cc1ccc2ccccc2c1)Nc1nc2nn(CCc3ccccc3)cc2c2nc(-c3ccco3)nn12 | 57.5 | 180 | 42.1 | > 50000
2 | CC(C)CCn1cc2c(nc(NC(=O)Cc3cccc(Cl)c3)n3nc(-c4ccco4)nc23)n1 | 13.7 | 273 | 1.86 | 1390
3 | CCCn1cc2c(nc(NC(=O)C(c3ccccc3)c3ccccc3)n3nc(-c4ccco4)nc23)n1 | 80.2 | 0.93 | 46.5 | 491
4 | O=C(Cc1ccc(-c2ccccc2)cc1)Nc1nc2nn(CCCc3ccccc3)cc2c2nc(-c3ccco3)nn12 | 1170 | 410 | 256 | > 100000
5 | O=C(Cc1ccccc1)Nc1nc2nn(CCc3ccccc3)cc2c2nc(-c3ccco3)nn12 | 128 | 5.49 | 43.9 | > 3000
6 | CCCn1cc2c(nc(NC(=O)Cc3ccc(-c4ccccc4)cc3)n3nc(-c4ccco4)nc23)n1 | 622 | 65.4 | 52.5 | > 10000
7 | CC(C)CCn1cc2c(nc(NC(=O)Cc3ccc(C(F)(F)F)cc3)n3nc(-c4ccco4)nc23)n1 | 48.2 | 266 | 5.43 | 5480
8 | Cn1cc2c(nc(NC(=O)Cc3ccc(-c4ccccc4)cc3)n3nc(-c4ccco4)nc23)n1 | 1460 | 11.2 | 193 | > 10000
9 | Cn1cc2c(nc(NC(=O)Cc3ccc(C(F)(F)F)cc3)n3nc(-c4ccco4)nc23)n1 | 768 | 1.22 | 75.9 | > 10000
10 | Cn1cc2c(nc(NC(=O)Cc3ccc4ccccc4c3)n3nc(-c4ccco4)nc23)n1 | 190 | 14.5 | 77.5 | > 10000
11 | O=C(Cc1cccc2ccccc12)Nc1nc2nn(CCCc3ccccc3)cc2c2nc(-c3ccco3)nn12 | 710 | 343 | 305 | > 100000
12 | CC(C)CCn1cc2c(nc(NC(=O)Cc3ccc(Cl)cc3)n3nc(-c4ccco4)nc23)n1 | 22.6 | 56.5 | 2.75 | 1220
13 | CCCCn1cc2c(nc(NC(=O)Cc3cccs3)n3nc(-c4ccco4)nc23)n1 | 70.1 | 99.8 | 4.15 | 1810
14 | Cn1cc2c(nc(NC(=O)C(c3ccccc3)c3ccccc3)n3nc(-c4ccco4)nc23)n1 | 139 | 0.25 | 216 | 363
15 | CC(C)CCn1cc2c(nc(NC(=O)Cc3ccc4ccccc4c3)n3nc(-c4ccco4)nc23)n1 | 140 | 409 | 15.7 | > 10000
16 | Cn1cc2c(nc(NC(=O)Cc3ccc(F)cc3)n3nc(-c4ccco4)nc23)n1 | 741 | 0.97 | 54.1 | 13000
17 | Cn1cc2c(nc(NC(=O)Cc3ccc(Cl)cc3)n3nc(-c4ccco4)nc23)n1 | 1850 | 12.7 | 156 | > 50000
18 | CCn1cc2c(nc(NC(=O)Cc3ccc(-c4ccccc4)cc3)n3nc(-c4ccco4)nc23)n1 | 557 | 14.2 | 70.9 | > 50000
19 | Cn1cc2c(nc(NC(=O)Cc3cccc4ccccc34)n3nc(-c4ccco4)nc23)n1 | 872 | 3.47 | 80.5 | > 10000
20 | O=C(Cc1ccc(Cl)cc1)Nc1nc2nn(CCCc3ccccc3)cc2c2nc(-c3ccco3)nn12 | 256 | 30.5 | 89.9 | > 10000
21 | O=C(Cc1c(Cl)cccc1Cl)Nc1nc2nn(CCCc3ccccc3)cc2c2nc(-c3ccco3)nn12 | 786 | 601 | 186 | > 10000

Source: ChEMBL document CHEMBL1154073, “Combining selectivity and affinity predictions using an integrated Support Vector Machine (SVM) approach: An alternative tool to discriminate between the human adenosine A(2A) and A(3) receptor pyrazolo-triazolo-pyrimidine antagonists binding sites” (Bioorg Med Chem, 2009)
